Where two headings read alike, the source gives them in different places.
Key:
Experiment in all cases: Kinase profiling, 33P ATP filter binding assay
Type in all cases: biochemical
[1] = target: ERK1 (Homo sapiens (Human), UniProt P27361); details: 1 micromolar inhibitor concentration, read-out: percentage inhibition
[2] = target: ERK2 (Homo sapiens (Human), UniProt P28482); details: 1 micromolar inhibitor concentration, read-out: percentage inhibition
[3] = target: p38b MAPK (Homo sapiens (Human), UniProt Q15759); details: 1 micromolar inhibitor concentration, read-out: percentage inhibition
[4] = target: p38d MAPK (Homo sapiens (Human), UniProt O15264); details: 1 micromolar inhibitor concentration, read-out: percentage inhibition
[5] = target: ERK8 (Homo sapiens (Human), UniProt Q8TD08); details: 1 micromolar inhibitor concentration, read-out: percentage inhibition
[6] = target: RSK1 (Homo sapiens (Human), UniProt Q15418); details: 1 micromolar inhibitor concentration, read-out: percentage inhibition
[7] = target: SGK1 (Homo sapiens (Human), UniProt O00141); details: 1 micromolar inhibitor concentration, read-out: percentage inhibition
[8] = target: PKCa (Homo sapiens (Human), UniProt P17252); details: 1 micromolar inhibitor concentration, read-out: percentage inhibition
[9] = target: MNK2 (Homo sapiens (Human), UniProt Q9HBH9); details: 1 micromolar inhibitor concentration, read-out: percentage inhibition
[10] = target: PRAK (Homo sapiens (Human), UniProt Q8IW41); details: 1 micromolar inhibitor concentration, read-out: percentage inhibition
[11] = target: CAMKKb (Homo sapiens (Human), UniProt Q96RR4); details: 1 micromolar inhibitor concentration, read-out: percentage inhibition
[12] = target: CDK9-Cyclin T1 (Homo sapiens (Human), UniProt P50750); details: 1 micromolar inhibitor concentration, read-out: percentage inhibition
[13] = target: Aurora A (Homo sapiens (Human), UniProt O14965); details: 1 micromolar inhibitor concentration, read-out: percentage inhibition
[14] = target: MARK4 (Homo sapiens (Human), UniProt Q96L34); details: 1 micromolar inhibitor concentration, read-out: percentage inhibition
[15] = target: BRSK1 (Homo sapiens (Human), UniProt Q8TDC3); details: 1 micromolar inhibitor concentration, read-out: percentage inhibition
[16] = target: NUAK1 (Homo sapiens (Human), UniProt O60285); details: 1 micromolar inhibitor concentration, read-out: percentage inhibition
[17] = target: SIK2 (Homo sapiens (Human), UniProt Q9H0K1); details: 1 micromolar inhibitor concentration, read-out: percentage inhibition
[18] = target: CK1δ (Homo sapiens (Human), UniProt P48730); details: read-out: percentage inhibition
Description: The determination of protein kinase inhibition was performed at the International Centre for Kinase Profiling at the University of Dundee, UK. […] The ATP concentrations were at or below the calculated Km for ATP for each particular kinase.

[19] = target: IKKb (Homo sapiens (Human), UniProt O14920); details: 1 micromolar inhibitor concentration, read-out: percentage inhibition
[20] = target: IKKe (Homo sapiens (Human), UniProt Q14164); details: 1 micromolar inhibitor concentration, read-out: percentage inhibition
[21] = target: PIM2 (Homo sapiens (Human), UniProt Q9P1W9); details: 1 micromolar inhibitor concentration, read-out: percentage inhibition
[22] = target: SRPK1 (Homo sapiens (Human), UniProt Q96SB4); details: 1 micromolar inhibitor concentration, read-out: percentage inhibition
[23] = target: EF2K (Homo sapiens (Human), UniProt O00418); details: 1 micromolar inhibitor concentration, read-out: percentage inhibition
[24] = target: HIPK2 (Homo sapiens (Human), UniProt Q9H2X6); details: 1 micromolar inhibitor concentration, read-out: percentage inhibition
[25] = target: HIPK3 (Homo sapiens (Human), UniProt Q9H422); details: 1 micromolar inhibitor concentration, read-out: percentage inhibition
[26] = target: MST4 (Homo sapiens (Human), UniProt Q9P289); details: 1 micromolar inhibitor concentration, read-out: percentage inhibition
[27] = target: MLK1 (Homo sapiens (Human), UniProt P80192); details: 1 micromolar inhibitor concentration, read-out: percentage inhibition
[28] = target: MLK3 (Homo sapiens (Human), UniProt Q16584); details: 1 micromolar inhibitor concentration, read-out: percentage inhibition
[29] = target: TTK (Homo sapiens (Human), UniProt P33981); details: 1 micromolar inhibitor concentration, read-out: percentage inhibition
[30] = target: MPSK1 (Homo sapiens (Human), UniProt O75716); details: 1 micromolar inhibitor concentration, read-out: percentage inhibition
[31] = target: TGFBR1 (Homo sapiens (Human), UniProt P36897); details: 1 micromolar inhibitor concentration, read-out: percentage inhibition
[32] = target: Src (Homo sapiens (Human), UniProt P12931); details: 1 micromolar inhibitor concentration, read-out: percentage inhibition
[33] = target: Lck (Homo sapiens (Human), UniProt P06239); details: 1 micromolar inhibitor concentration, read-out: percentage inhibition
[34] = target: BTK (Homo sapiens (Human), UniProt Q06187); details: 1 micromolar inhibitor concentration, read-out: percentage inhibition
[35] = target: SYK (Homo sapiens (Human), UniProt P43405); details: 1 micromolar inhibitor concentration, read-out: percentage inhibition
[36] = target: EPH-A2 (Homo sapiens (Human), UniProt P29317); details: 1 micromolar inhibitor concentration, read-out: percentage inhibition
[37] = target: EPH-B4 (Homo sapiens (Human), UniProt P54760); details: 1 micromolar inhibitor concentration, read-out: percentage inhibition
[38] = target: HER4 (Homo sapiens (Human), UniProt Q15303); details: 1 micromolar inhibitor concentration, read-out: percentage inhibition
[39] = target: IRR (Homo sapiens (Human), UniProt P14616); details: 1 micromolar inhibitor concentration, read-out: percentage inhibition
[40] = target: TrkA (Homo sapiens (Human), UniProt P04629); details: 1 micromolar inhibitor concentration, read-out: percentage inhibition
[41] = target: VEG-FR (Homo sapiens (Human), UniProt P17948); details: 1 micromolar inhibitor concentration, read-out: percentage inhibition

Chain of NUAK1 (O60285 whole entry, species assumed): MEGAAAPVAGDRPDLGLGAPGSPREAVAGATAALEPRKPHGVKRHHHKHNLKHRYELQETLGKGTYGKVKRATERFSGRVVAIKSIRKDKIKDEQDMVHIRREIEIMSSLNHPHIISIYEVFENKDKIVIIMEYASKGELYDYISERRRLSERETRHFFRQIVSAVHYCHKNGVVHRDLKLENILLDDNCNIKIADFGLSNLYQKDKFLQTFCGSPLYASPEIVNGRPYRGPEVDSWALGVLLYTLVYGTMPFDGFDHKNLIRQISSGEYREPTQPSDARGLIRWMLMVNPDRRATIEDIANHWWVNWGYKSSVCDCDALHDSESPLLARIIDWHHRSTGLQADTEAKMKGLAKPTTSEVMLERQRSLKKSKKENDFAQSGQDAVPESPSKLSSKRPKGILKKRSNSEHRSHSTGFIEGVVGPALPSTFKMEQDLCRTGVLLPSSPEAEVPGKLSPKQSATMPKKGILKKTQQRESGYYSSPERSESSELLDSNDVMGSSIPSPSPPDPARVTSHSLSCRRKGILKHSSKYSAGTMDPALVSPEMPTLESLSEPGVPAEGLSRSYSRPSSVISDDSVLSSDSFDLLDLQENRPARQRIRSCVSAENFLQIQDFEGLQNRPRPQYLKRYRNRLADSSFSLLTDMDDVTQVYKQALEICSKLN
Chain of CDK9-Cyclin T1 (P50750 whole entry): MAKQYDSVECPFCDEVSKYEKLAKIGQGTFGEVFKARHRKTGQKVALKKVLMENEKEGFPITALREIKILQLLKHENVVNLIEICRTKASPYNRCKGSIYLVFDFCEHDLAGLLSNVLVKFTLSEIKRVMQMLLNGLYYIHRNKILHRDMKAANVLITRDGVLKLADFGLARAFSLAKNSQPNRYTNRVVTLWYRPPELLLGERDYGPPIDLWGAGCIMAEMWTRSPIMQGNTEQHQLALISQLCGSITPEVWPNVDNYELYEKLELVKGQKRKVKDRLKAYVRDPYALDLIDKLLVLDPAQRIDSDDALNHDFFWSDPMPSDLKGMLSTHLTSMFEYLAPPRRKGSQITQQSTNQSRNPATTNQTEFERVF
Chain of CDK9-Cyclin T1 (O60563 whole entry partner): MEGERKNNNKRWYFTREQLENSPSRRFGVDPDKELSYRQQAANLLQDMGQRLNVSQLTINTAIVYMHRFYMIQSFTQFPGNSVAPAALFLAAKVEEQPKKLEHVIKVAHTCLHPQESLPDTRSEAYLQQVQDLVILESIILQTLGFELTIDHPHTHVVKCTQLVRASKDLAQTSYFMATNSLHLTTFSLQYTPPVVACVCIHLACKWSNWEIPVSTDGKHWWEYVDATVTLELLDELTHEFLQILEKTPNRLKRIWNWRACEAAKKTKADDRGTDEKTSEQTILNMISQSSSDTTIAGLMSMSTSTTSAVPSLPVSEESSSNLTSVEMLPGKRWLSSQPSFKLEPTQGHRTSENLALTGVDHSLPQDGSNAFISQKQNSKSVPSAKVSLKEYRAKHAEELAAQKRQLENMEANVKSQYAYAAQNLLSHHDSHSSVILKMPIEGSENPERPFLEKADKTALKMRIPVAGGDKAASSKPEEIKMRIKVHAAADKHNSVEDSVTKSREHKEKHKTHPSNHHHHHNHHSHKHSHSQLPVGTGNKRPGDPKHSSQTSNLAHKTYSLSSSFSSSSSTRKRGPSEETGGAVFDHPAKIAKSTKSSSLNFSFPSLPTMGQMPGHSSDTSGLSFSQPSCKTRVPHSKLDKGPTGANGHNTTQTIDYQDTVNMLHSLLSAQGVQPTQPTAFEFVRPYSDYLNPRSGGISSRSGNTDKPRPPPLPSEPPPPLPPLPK
Chain of BTK (Q06187 whole entry, species assumed): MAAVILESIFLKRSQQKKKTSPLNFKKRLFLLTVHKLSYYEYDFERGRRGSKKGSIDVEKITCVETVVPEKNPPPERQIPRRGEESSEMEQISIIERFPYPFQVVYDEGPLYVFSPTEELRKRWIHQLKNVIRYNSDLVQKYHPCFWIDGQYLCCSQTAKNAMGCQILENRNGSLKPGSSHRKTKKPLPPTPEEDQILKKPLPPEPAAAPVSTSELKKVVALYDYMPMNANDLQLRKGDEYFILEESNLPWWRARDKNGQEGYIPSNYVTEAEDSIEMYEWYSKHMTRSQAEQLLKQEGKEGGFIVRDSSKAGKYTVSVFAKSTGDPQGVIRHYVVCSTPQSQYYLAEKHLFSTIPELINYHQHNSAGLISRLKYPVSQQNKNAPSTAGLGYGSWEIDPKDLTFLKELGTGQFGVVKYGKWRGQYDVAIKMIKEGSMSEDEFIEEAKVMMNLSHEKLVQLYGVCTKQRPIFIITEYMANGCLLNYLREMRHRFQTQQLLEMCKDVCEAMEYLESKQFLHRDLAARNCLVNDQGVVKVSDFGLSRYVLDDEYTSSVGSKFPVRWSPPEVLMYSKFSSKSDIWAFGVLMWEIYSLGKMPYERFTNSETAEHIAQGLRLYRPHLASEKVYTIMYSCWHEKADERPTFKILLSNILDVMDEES
Chain of SRPK1 (Q96SB4 whole entry, species assumed): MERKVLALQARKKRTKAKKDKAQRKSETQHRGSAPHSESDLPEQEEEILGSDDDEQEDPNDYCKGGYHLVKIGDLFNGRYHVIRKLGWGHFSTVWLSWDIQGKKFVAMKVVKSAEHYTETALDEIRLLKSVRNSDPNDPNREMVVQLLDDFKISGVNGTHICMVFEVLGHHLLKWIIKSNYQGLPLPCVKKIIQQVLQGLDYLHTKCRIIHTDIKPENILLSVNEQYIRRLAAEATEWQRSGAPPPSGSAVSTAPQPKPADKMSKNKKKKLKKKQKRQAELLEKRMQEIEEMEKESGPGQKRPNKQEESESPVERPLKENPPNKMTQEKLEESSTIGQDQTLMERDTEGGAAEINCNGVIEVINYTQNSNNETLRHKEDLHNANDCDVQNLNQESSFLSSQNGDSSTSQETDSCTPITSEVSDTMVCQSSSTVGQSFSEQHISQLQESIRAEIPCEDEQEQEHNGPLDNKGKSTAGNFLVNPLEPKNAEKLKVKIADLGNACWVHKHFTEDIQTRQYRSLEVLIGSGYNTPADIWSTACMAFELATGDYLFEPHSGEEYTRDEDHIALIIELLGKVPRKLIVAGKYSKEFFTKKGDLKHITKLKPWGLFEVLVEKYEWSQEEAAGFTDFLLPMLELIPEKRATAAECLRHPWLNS
Chain of MARK4 (Q96L34 whole entry, species assumed): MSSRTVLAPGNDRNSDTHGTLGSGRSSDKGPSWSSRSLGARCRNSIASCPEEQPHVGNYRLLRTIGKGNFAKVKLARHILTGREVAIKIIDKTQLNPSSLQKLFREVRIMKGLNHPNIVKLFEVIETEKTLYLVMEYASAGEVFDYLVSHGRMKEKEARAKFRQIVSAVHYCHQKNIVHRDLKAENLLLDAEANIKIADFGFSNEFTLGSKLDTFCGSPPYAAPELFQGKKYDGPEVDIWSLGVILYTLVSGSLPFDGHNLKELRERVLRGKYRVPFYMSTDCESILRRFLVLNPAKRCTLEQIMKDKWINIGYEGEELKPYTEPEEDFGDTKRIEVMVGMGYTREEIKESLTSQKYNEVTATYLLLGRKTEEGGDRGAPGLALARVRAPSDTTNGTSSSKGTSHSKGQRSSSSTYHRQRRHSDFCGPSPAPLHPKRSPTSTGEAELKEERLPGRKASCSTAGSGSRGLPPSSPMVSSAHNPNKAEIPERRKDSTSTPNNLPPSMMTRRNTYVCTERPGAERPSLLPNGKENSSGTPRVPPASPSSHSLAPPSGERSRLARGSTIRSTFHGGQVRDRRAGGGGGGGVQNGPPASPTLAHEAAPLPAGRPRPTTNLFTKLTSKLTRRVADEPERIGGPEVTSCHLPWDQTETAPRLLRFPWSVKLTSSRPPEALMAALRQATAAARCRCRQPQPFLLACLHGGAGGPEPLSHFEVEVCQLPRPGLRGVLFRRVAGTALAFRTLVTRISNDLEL
Chain of SIK2 (Q9H0K1 whole entry, species assumed): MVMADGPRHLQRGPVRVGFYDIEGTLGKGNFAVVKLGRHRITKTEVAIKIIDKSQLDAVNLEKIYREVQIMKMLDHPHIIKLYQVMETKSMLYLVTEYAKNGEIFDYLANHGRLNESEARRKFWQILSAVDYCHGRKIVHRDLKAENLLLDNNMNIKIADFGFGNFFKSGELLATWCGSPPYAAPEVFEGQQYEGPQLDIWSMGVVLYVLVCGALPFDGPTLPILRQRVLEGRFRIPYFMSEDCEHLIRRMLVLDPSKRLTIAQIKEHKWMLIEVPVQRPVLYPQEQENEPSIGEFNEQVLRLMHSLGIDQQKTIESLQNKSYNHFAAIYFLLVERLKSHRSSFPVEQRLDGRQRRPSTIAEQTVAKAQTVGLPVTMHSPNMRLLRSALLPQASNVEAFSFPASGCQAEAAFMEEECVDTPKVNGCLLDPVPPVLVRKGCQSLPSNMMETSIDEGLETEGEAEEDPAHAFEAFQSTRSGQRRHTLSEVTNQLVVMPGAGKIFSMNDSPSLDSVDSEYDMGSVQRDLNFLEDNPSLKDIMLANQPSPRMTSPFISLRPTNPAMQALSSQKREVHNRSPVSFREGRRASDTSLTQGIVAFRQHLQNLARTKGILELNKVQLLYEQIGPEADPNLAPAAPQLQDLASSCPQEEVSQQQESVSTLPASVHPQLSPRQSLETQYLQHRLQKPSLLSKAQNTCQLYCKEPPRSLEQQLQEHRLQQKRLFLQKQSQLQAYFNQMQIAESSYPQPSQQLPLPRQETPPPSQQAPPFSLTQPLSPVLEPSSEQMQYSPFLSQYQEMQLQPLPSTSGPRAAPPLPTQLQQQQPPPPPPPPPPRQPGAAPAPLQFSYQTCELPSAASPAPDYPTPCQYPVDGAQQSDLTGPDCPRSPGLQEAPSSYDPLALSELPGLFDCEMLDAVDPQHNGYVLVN

COc1ccc2sc(-c3cncc(NC(C)=O)c3)nc2c1 [4-93, N-(5-(5-Methoxybenzo[d]thiazol-2-yl)pyridin-3-yl)acetamide]
inhibition at 1 µM [1]: 0% | inhibition at 1 µM [2]: 0% | inhibition at 1 µM [3]: 0% | inhibition at 1 µM [4]: 0% | inhibition at 1 µM [5]: 11% | inhibition at 1 µM [6]: 1% | inhibition at 1 µM [7]: 0% | inhibition at 1 µM [8]: 0% | inhibition at 1 µM [9]: 0% | inhibition at 1 µM [10]: 0% | inhibition at 1 µM [11]: 0% | inhibition at 1 µM [12]: 0% | inhibition at 1 µM [13]: 0% | inhibition at 1 µM [14]: 0% | inhibition at 1 µM [15]: 0% | inhibition at 1 µM [16]: 0% | inhibition at 1 µM [17]: 0% | inhibition at 1 µM [18]: 1% | inhibition at 1 µM [19]: 0% | inhibition at 1 µM [20]: 0% | inhibition at 1 µM [21]: 0% | inhibition at 1 µM [22]: 0% | inhibition at 1 µM [23]: 0% | inhibition at 1 µM [24]: 10% | inhibition at 1 µM [25]: 0% | inhibition at 1 µM [26]: 0% | inhibition at 1 µM [27]: 0% | inhibition at 1 µM [28]: 0% | inhibition at 1 µM [29]: 12% | inhibition at 1 µM [30]: 0% | inhibition at 1 µM [31]: 0% | inhibition at 1 µM [32]: 0% | inhibition at 1 µM [33]: 7% | inhibition at 1 µM [34]: 8% | inhibition at 1 µM [35]: 0% | inhibition at 1 µM [36]: 0% | inhibition at 1 µM [37]: 0% | inhibition at 1 µM [38]: 0% | inhibition at 1 µM [39]: 0% | inhibition at 1 µM [40]: 0% | inhibition at 1 µM [41]: 0%

CS(=O)(=O)Nc1cncc(-c2nc3cc(O)ccc3s2)c1 [4-99, N-(5-(5-Hydroxybenzo[d]thiazol-2-yl)pyridin-3-yl)methanesulfonamide]
inhibition at 1 µM [1]: 0% | inhibition at 1 µM [2]: 0% | inhibition at 1 µM [3]: 0% | inhibition at 1 µM [4]: 0% | inhibition at 1 µM [5]: 0% | inhibition at 1 µM [6]: 0% | inhibition at 1 µM [7]: 7% | inhibition at 1 µM [8]: 0% | inhibition at 1 µM [9]: 0% | inhibition at 1 µM [10]: 0% | inhibition at 1 µM [11]: 0% | inhibition at 1 µM [12]: 0% | inhibition at 1 µM [13]: 0% | inhibition at 1 µM [14]: 0% | inhibition at 1 µM [15]: 0% | inhibition at 1 µM [16]: 0% | inhibition at 1 µM [17]: 0% | inhibition at 1 µM ([18]; CK1δ, 1 micromolar inhibitor concentration): 8% | inhibition at 1 µM [19]: 0% | inhibition at 1 µM [20]: 0% | inhibition at 1 µM [21]: 0% | inhibition at 1 µM [22]: 0% | inhibition at 1 µM [23]: 0% | inhibition at 1 µM [24]: 0% | inhibition at 1 µM [25]: 0% | inhibition at 1 µM [26]: 0% | inhibition at 1 µM [27]: 0% | inhibition at 1 µM [28]: 0% | inhibition at 1 µM [29]: 0% | inhibition at 1 µM [30]: 11% | inhibition at 1 µM [31]: 0% | inhibition at 1 µM [32]: 0% | inhibition at 1 µM [33]: 0% | inhibition at 1 µM [34]: 0% | inhibition at 1 µM [35]: 0% | inhibition at 1 µM [36]: 0% | inhibition at 1 µM [37]: 0% | inhibition at 1 µM [38]: 0% | inhibition at 1 µM [39]: 0% | inhibition at 1 µM [40]: 0% | inhibition at 1 µM [41]: 0%

— patent US10927106B2, “Benzothiazole derivatives as DYRK1 inhibitors” (PHARMASUM THERAPEUTICS AS, priority 2017, dated 2021)
